System: 171881-019-R-J1-PDC complex spheroid growth, % test/control
Assay: Anticancer human tumor 171881-019-R-J1-PDC patient-derived invasive breast carcinoma cell line growth inhibition [Asc]
Settings: for IC50: curve of first compound; for viability, T/C: stronger effect = lower value
Summary of the method: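 Tumor cells were grown as multicellular spheroids with stromal HUVEC and mesenchymal stem cells and treated singly or in combination. Concentrations fell in half-log steps from the clinical Cmax, or from 10 microM where none was known.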

[1] = second compound 0.1 µM, first compound 0.0316 µM
[2] = second compound 0.1 µM, first compound 0.1 µM
[3] = second compound 0.1 µM, first compound 0.316 µM
[4] = second compound 0.1 µM, first compound 1 µM
[5] = second compound 0.1 µM, first compound 3.16 µM
[6] = second compound 0.1 µM, first compound 10 µM
[7] = second compound 0.316 µM, first compound 0.0316 µM
[8] = second compound 0.316 µM, first compound 0.1 µM
[9] = second compound 0.316 µM, first compound 0.316 µM
[10] = second compound 0.316 µM, first compound 1 µM
[11] = second compound 0.316 µM, first compound 3.16 µM
[12] = second compound 0.316 µM, first compound 10 µM
[13] = second compound 1 µM, first compound 0.0316 µM
[14] = second compound 1 µM, first compound 0.1 µM
[15] = second compound 1 µM, first compound 0.316 µM
[16] = second compound 1 µM, first compound 1 µM
[17] = second compound 1 µM, first compound 3.16 µM
[18] = second compound 1 µM, first compound 10 µM
[19] = second compound 3.16 µM, first compound 0.0316 µM
[20] = second compound 3.16 µM, first compound 0.1 µM
[21] = second compound 3.16 µM, first compound 0.316 µM
[22] = second compound 3.16 µM, first compound 1 µM
[23] = second compound 3.16 µM, first compound 3.16 µM
[24] = second compound 3.16 µM, first compound 10 µM
[25] = second compound 10 µM, first compound 0.0316 µM
[26] = second compound 10 µM, first compound 0.1 µM
[27] = second compound 10 µM, first compound 0.316 µM
[28] = second compound 10 µM, first compound 1 µM
[29] = second compound 10 µM, first compound 3.16 µM
[30] = second compound 10 µM, first compound 10 µM
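Throughout, for viability, T/C: spheroids exposed to compounds for 7 days.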

C#Cc1c(F)ccc2cc(O)cc(-c3ncc4c(N5CC6CCC(C5)N6)nc(OCC56CCCN5CC(F)C6)nc4c3F)c12 (stereo not given) + Cc1c(S(C)(=O)=O)c(-c2cc(F)cc(N3CCN(c4ccc(NS(=O)(=O)c5ccc(NC(CCN6CCC(C(=O)OCCCP(=O)(O)O)CC6)CSc6ccccc6)c(S(=O)(=O)C(F)(F)F)c5)cc4)CC3)c2)c(-c2ccc(Cl)cc2)n1C(C)C
IC50 (second compound 0.1 µM): > 10 µM
IC50 (second compound 0.316 µM): > 10 µM
IC50 (second compound 1 µM): > 10 µM
IC50 (second compound 3.16 µM): 6.86 µM
IC50 (second compound 10 µM): 4 µM
viability, T/C [1]: 103%
viability, T/C [2]: 116%
viability, T/C [3]: 152%
viability, T/C [4]: 167%
viability, T/C [5]: 154%
viability, T/C [6]: 111%
viability, T/C [7]: 138%
viability, T/C [8]: 169%
viability, T/C [9]: 219%
viability, T/C [10]: 165%
viability, T/C [11]: 112%
viability, T/C [12]: 86%
viability, T/C [13]: 162%
viability, T/C [14]: 177%
viability, T/C [15]: 165%
viability, T/C [16]: 131%
viability, T/C [17]: 84.3%
viability, T/C [18]: 61.1%
viability, T/C [19]: 179%
viability, T/C [20]: 179%
viability, T/C [21]: 155%
viability, T/C [22]: 97.6%
viability, T/C [23]: 63.2%
viability, T/C [24]: 43%
viability, T/C [25]: 179%
viability, T/C [26]: 186%
viability, T/C [27]: 135%
viability, T/C [28]: 91.5%
viability, T/C [29]: 58%
viability, T/C [30]: 33.9%

C=C(F)C(=O)N1CCN(c2nc(OCC3CCCN3C)nc3c2CCN(c2cccc4cccc(Cl)c24)C3)CC1CC#N (stereo not given) + Cc1c(S(C)(=O)=O)c(-c2cc(F)cc(N3CCN(c4ccc(NS(=O)(=O)c5ccc(NC(CCN6CCC(C(=O)OCCCP(=O)(O)O)CC6)CSc6ccccc6)c(S(=O)(=O)C(F)(F)F)c5)cc4)CC3)c2)c(-c2ccc(Cl)cc2)n1C(C)C
IC50 (second compound 0.1 µM): 5.61 µM
IC50 (second compound 0.316 µM): 5.89 µM
IC50 (second compound 1 µM): 4.12 µM
IC50 (second compound 3.16 µM): 2.53 µM
IC50 (second compound 10 µM): 2.43 µM
viability, T/C [1]: 93.8%
viability, T/C [2]: 86.7%
viability, T/C [3]: 106%
viability, T/C [4]: 90.9%
viability, T/C [5]: 118%
viability, T/C [6]: 0.36%
viability, T/C [7]: 130%
viability, T/C [8]: 129%
viability, T/C [9]: 113%
viability, T/C [10]: 125%
viability, T/C [11]: 108%
viability, T/C [12]: 0.3%
viability, T/C [13]: 124%
viability, T/C [14]: 136%
viability, T/C [15]: 133%
viability, T/C [16]: 131%
viability, T/C [17]: 64.8%
viability, T/C [18]: 0.25%
viability, T/C [19]: 161%
viability, T/C [20]: 149%
viability, T/C [21]: 144%
viability, T/C [22]: 185%
viability, T/C [23]: 23.6%
viability, T/C [24]: 0.3%
viability, T/C [25]: 179%
viability, T/C [26]: 191%
viability, T/C [27]: 196%
viability, T/C [28]: 202%
viability, T/C [29]: 15.2%
viability, T/C [30]: 0.27%

CCN1C(C(=O)NC23CCC(C(=O)O)(CC2)CC3)C(c2cccc(Cl)c2F)C2(C(=O)Nc3cc(Cl)ccc32)C12CCCCC2 (stereo not given) + Cc1c(S(C)(=O)=O)c(-c2cc(F)cc(N3CCN(c4ccc(NS(=O)(=O)c5ccc(NC(CCN6CCC(C(=O)OCCCP(=O)(O)O)CC6)CSc6ccccc6)c(S(=O)(=O)C(F)(F)F)c5)cc4)CC3)c2)c(-c2ccc(Cl)cc2)n1C(C)C
IC50 (second compound 0.1 µM): > 3 µM
IC50 (second compound 0.316 µM): > 3 µM
IC50 (second compound 1 µM): > 3 µM
IC50 (second compound 3.16 µM): > 3 µM
IC50 (second compound 10 µM): > 3 µM
viability, T/C (second compound 0.1 µM, first compound 0.00949 µM): 82.5%
viability, T/C (second compound 0.1 µM, first compound 0.03 µM): 107%
viability, T/C (second compound 0.1 µM, first compound 0.0949 µM): 102%
viability, T/C (second compound 0.1 µM, first compound 0.3 µM): 90.5%
viability, T/C (second compound 0.1 µM, first compound 0.949 µM): 105%
viability, T/C (second compound 0.1 µM, first compound 3 µM): 120%
viability, T/C (second compound 0.316 µM, first compound 0.00949 µM): 100%
viability, T/C (second compound 0.316 µM, first compound 0.03 µM): 110%
viability, T/C (second compound 0.316 µM, first compound 0.0949 µM): 129%
viability, T/C (second compound 0.316 µM, first compound 0.3 µM): 105%
viability, T/C (second compound 0.316 µM, first compound 0.949 µM): 144%
viability, T/C (second compound 0.316 µM, first compound 3 µM): 146%
viability, T/C (second compound 1 µM, first compound 0.00949 µM): 116%
viability, T/C (second compound 1 µM, first compound 0.03 µM): 133%
viability, T/C (second compound 1 µM, first compound 0.0949 µM): 129%
viability, T/C (second compound 1 µM, first compound 0.3 µM): 117%
viability, T/C (second compound 1 µM, first compound 0.949 µM): 130%
viability, T/C (second compound 1 µM, first compound 3 µM): 167%
viability, T/C (second compound 3.16 µM, first compound 0.00949 µM): 152%
viability, T/C (second compound 3.16 µM, first compound 0.03 µM): 147%
viability, T/C (second compound 3.16 µM, first compound 0.0949 µM): 159%
viability, T/C (second compound 3.16 µM, first compound 0.3 µM): 162%
viability, T/C (second compound 3.16 µM, first compound 0.949 µM): 146%
viability, T/C (second compound 3.16 µM, first compound 3 µM): 163%
viability, T/C (second compound 10 µM, first compound 0.00949 µM): 192%
viability, T/C (second compound 10 µM, first compound 0.03 µM): 179%
viability, T/C (second compound 10 µM, first compound 0.0949 µM): 182%
viability, T/C (second compound 10 µM, first compound 0.3 µM): 185%
viability, T/C (second compound 10 µM, first compound 0.949 µM): 193%
viability, T/C (second compound 10 µM, first compound 3 µM): 172%

CNC(C)C(=O)NC1CN(S(=O)(=O)c2cccc(S(=O)(=O)N3CCC4CCC(C(=O)NC(c5ccccc5)c5ccccc5)N4C(=O)C(NC(=O)C(C)NC)C3)c2)CCC2CCC(C(=O)NC(c3ccccc3)c3ccccc3)N2C1=O (stereo not given) + Cc1c(S(C)(=O)=O)c(-c2cc(F)cc(N3CCN(c4ccc(NS(=O)(=O)c5ccc(NC(CCN6CCC(C(=O)OCCCP(=O)(O)O)CC6)CSc6ccccc6)c(S(=O)(=O)C(F)(F)F)c5)cc4)CC3)c2)c(-c2ccc(Cl)cc2)n1C(C)C
IC50 (second compound 0.1 µM): > 1 µM
IC50 (second compound 0.316 µM): > 1 µM
IC50 (second compound 1 µM): > 1 µM
IC50 (second compound 3.16 µM): > 1 µM
IC50 (second compound 10 µM): > 1 µM
viability, T/C (second compound 0.1 µM, first compound 0.00316 µM): 100%
viability, T/C (second compound 0.1 µM, first compound 0.01 µM): 90.4%
viability, T/C [1]: 96%
viability, T/C [2]: 87.8%
viability, T/C [3]: 82.5%
viability, T/C [4]: 73.2%
viability, T/C (second compound 0.316 µM, first compound 0.00316 µM): 110%
viability, T/C (second compound 0.316 µM, first compound 0.01 µM): 109%
viability, T/C [7]: 94.9%
viability, T/C [8]: 112%
viability, T/C [9]: 90.8%
viability, T/C [10]: 97.2%
viability, T/C (second compound 1 µM, first compound 0.00316 µM): 90.1%
viability, T/C (second compound 1 µM, first compound 0.01 µM): 133%
viability, T/C [13]: 129%
viability, T/C [14]: 107%
viability, T/C [15]: 104%
viability, T/C [16]: 119%
viability, T/C (second compound 3.16 µM, first compound 0.00316 µM): 138%
viability, T/C (second compound 3.16 µM, first compound 0.01 µM): 141%
viability, T/C [19]: 144%
viability, T/C [20]: 130%
viability, T/C [21]: 126%
viability, T/C [22]: 156%
viability, T/C (second compound 10 µM, first compound 0.00316 µM): 204%
viability, T/C (second compound 10 µM, first compound 0.01 µM): 171%
viability, T/C [25]: 172%
viability, T/C [26]: 183%
viability, T/C [27]: 161%
viability, T/C [28]: 173%
